Where two headings read alike, the source gives them in different places.
Key:
eIF4A = conditions: literature; cited from earlier work
[1] = tested on: stress granules and P-bodies; conditions: literature, cited from earlier work
[2] = tested on: P-bodies (EDC4 foci) in HEK293T cells; test: Immunofluorescence phenotypic screen for P-bodies (α-EDC4) in glucose-deprived HEK293T cells; type: cell-based
Method: (§1) SuTEx compound treatments. Prior to treatments, cells were washed twice with warm phosphate-buffered saline (PBS) and exchanged with serum-free DMEM (supplemented with 1% L-glutamine) for at least 30 minutes at 37° C. with 5% CO2. Compounds were then added as 1000×DMSO stocks (10 μL for 10 cm dishes and 3 μL for 6-well dishes), plates were mixed gently, and cells were incubated for two hours. All compounds were thoroughly vortexed and sonicated for five minutes prior to addition to ensure complete solvation. For microscopy experiments, cultures were seeded at 150,000 cells in 3 mL of DMEM in 6-well THERMO SCIENTIFIC™ BIOLITE™ brand microwell plates (Catalog No. 12556004; Thermo Fisher Scientific Inc., Waltham, Massachusetts. United States of America). For collection, media was aspirated, and cells were washed once with cold PBS before scraping from plates. Cells were centrifuged at 500×g at 4° C. for 5 minutes and supernatant was removed. Cell pellets were resuspended in cold PBS (1 mL) and centrifuged at 1,400×g at 4° C. for 3 minutes. Supernatant was again removed, and pellets were then snap-frozen in liquid nitrogen and stored at −80° C. until needed.
(§2) Immunofluorescence. Immunofluorescence (IF) of HEK293T cells was performed as previously described in Ciancone et al., 2022. HeLa cells were seeded at 9.0×10^4 in a 24-well plate with 12-mm glass coverslips. The next day, the cells were treated with 25 μM SuTEx probe for 2 hours in DMEM medium without FBS. The cells were then treated with 75 μM NaAsO2 for 30 minutes and fixed with 3% paraformaldehyde in PBS for 15 minutes at room temperature (RT) and washed with PBS twice. The fixed cells were permeabilized with PBST (0.1% Triton X-100) for 15 minutes at room temperature and blocked with 5% goat serum in PBST for 30 minutes at RT. The cells were incubated with anti-G3BP1 antibody H-10 (Catalog No. sc-365338 at 1:200 dilution; Santa Cruz Biotechnology, Inc., Dallas, Texas, United States of America) for 2 hours at RT and washed with PBST (0.1% Tween-20) for 5 minutes three times. Next, cells were incubated with goat anti-mouse Alexa 594 antibody (Catalog No. 115-585-003 at 1:800 dilution; Jackson ImmunoResearch, West Grove, Pennsylvania, United States of America) for 30 minutes at RT. The cells were washed twice with PBST, stained with Hoechst 33342 (Catalog No. H3570 at […]; Thermo Fischer Scientific) in PBST for 5 minutes, and washed with PBS twice for 5 minutes. The coverslips were mounted in PROLONG™ Gold AntiFade Mountant (Catalog No. P36930, Thermo Fisher Scientific) and imaged using NIS Elements AR software and a Nikon Eclipse Ti microscope equipped with a ×100 objective and CMOS camera. […] A CellProfiler pipeline was developed to quantify the number of stress granules under each condition. Briefly, cells were recognized as blue^+ (nuclei) red^+ (G3BP1) objects, and the red^+ granules that meet the shape and size threshold were identified and counted. Cells on the border of linages were excluded from the analysis for more accurate quantification.
Data Analysis—Microscopy. All slides were blinded for imaging. Leica SP5X images were analyzed using Fiji (ImageJ). Custom macros were written for analysis and can be obtained upon request. To elaborate, images were split into channels based on the different laser wavelengths measured. Image stacks were then combined using ‘Z-Project’ with an average intensity parameter and a threshold was applied to exclude noise based on the negative control (no EDC4 antibody). The ‘Analyze Particles’ function was used with relevant size and circularity constraints (0.85-1.00) to count the number of foci, with total PBs having a diameter of >150 nm, and large PBs>450 nm. The number of foci was normalized to the number of cells (defined by a DAPI stain count) in each linage, and the number of foci per cell was averaged across technical replicates. Every sample had at least two technical replicates and two independent biological replicates. […]

[3] = tested on: stress granules (G3BP1 foci) in HeLa cells; test: Immunofluorescence phenotypic screen for stress granules (α-G3BP1) in stressed HeLa cells; type: cell-based; conditions: 25 μM, 2 h
Method: as §1, §2
We used immunofluorescence (IF) detection for phenotypic screening of SuTEx compound activity on stress-induced PB and SG levels in cells (FIG. 1B). PBs were induced through glucose deprivation of HEK293T cells and detected by immunofluorescence with anti-enhancer of mRNA-decapping protein 4 (EDC4) as previously described (Kedersha & Anderson, 2007; Ciancone et al., 2022) (~4 vs 2 PBs/cell in −glucose and +glucose conditions, respectively; FIG. 8). EDC4 is an established PB marker for mammalian cells and is important for PB formation (Kedersha & Anderson, 2007; Luo et al., 2018). SGs were induced in HeLa cells by [COMPOUND LEFT OUT] treatments and detected by fluorescent staining with anti-Ras GTPase-activating protein-binding protein 1 (G3BP1) antibody (75 μM [COMPOUND LEFT OUT], 30 min; FIG. 9). G3BP1 foci have been used in previous IF studies to identify SGs in cells (Kedersha & Anderson, 2007). […]

[4] = glucose-deprived HEK293T cells, 25 μM, 2 h

C[C@H]1C[C@@]2(O[C@H]3C[C@H]4[C@@H]5CC[C@H]6C[C@H](O)CC[C@]6(C)[C@H]5[C@@H](O)C[C@]4(C)[C@H]3[C@@]2(C)O)OC1(C)C [hippuristanol]
inhibition of eIF4A (in words) (eIF4A): inhibit eIF4A | effect on RNP granules (in words) [1]: induce SGs in an eIF2a-independent manner

O=S(=O)(c1cccnc1)n1cc(-c2ccccc2F)nn1 [AMC-001, 3-((4-(2-Fluorophenyl)-1H-1,2,3-triazol-1-yl)sulfonyl)pyridine]
fold induction at 25 µM ([2]; Homo sapiens, HEK-293T, glucose-deprived HEK293T cells, pretreatment, 25 μM, 2 h, read-out: increase in PBs/cells): > 2 | effect on PBs (in words) [2, 4]: statistically significant increase in PBs per glucose-deprived cell | increase in PBs ([2]; glucose-deprived cells, pretreatment): > 200% | effect on SGs (in words) [3]: negligible effects on the number of SGs per cell

COC(=O)[C@H]1[C@@H](O)[C@@]2(O)c3c(OC)cc(O[C@@H]4O[C@@H]([C@H](O)CO)CO[C@H]4OC)cc3O[C@@]2(c2ccc(OC)cc2)[C@@H]1c1ccccc1 [silvestrol]
inhibition of eIF4A (in words) (eIF4A): inhibit eIF4A

C[C@@H]1C[C@@H]([C@H](O)CC2CC(=O)NC(=O)C2)C(=O)[C@@H](C)C1 [cycloheximide]
toxicity (in words) [1]: significant toxicity

O=S(=O)(c1ccc(F)cc1)n1cnc(-c2cccnc2)n1 [JWB180, 3-(1-((4-Fluorophenyl)sulfonyl)-1H-1,2,4-triazol-3-yl)pyridine]
effect on PBs (in words) [2, 4]: negligible effects | effect on SGs (in words) [3]: negligible effects

CC(/C=C/C(C)=C/[C@@H]1Cc2nc(cs2)[C@@H](C)C[C@@H](N)CC(=O)O[C@@H](C)C/C(C)=C/C=C\C(=O)O1)=C\CN(C)C [pateamine A]
inhibition of eIF4A (in words) (eIF4A): inhibit eIF4A | effect on RNP granules (in words) [1]: induce SGs in an eIF2a-independent manner

CC(C)C[C@H](NC(=O)[C@H](Cc1ccccc1)NC(=O)c1cnccn1)B(O)O [bortezomib]
effect on RNP granules (in words) [1]: formation of pro-survival SGs in solid tumors

O=c1[nH]cc(F)c(=O)[nH]1 [5-fluorouracil]
effect on RNP granules (in words) [1]: formation of pro-survival SGs in solid tumors

CC[C@H]1CN2CCc3cc(OC)c(OC)cc3[C@@H]2C[C@@H]1C[C@H]1NCCc2cc(OC)c(OC)cc21 [emetine]
effect on PB formation (in words) ([2]; emetine 50 nM, 2 h, vs vehicle (water), p<0.001): inhibited PB formation | effect on RNP granules (in words) [1]: disassemble SGs and stress-induced PBs | toxicity (in words) [1]: significant toxicity | effect on RNP granules (in words) ([1]; listed as Emetine): inhibit and even dissociate PBs

CC[C@]1(O)C[C@@H]2CN(CCc3c([nH]c4ccccc34)[C@@](C(=O)OC)(c3cc4c(cc3OC)N(C)[C@H]3[C@@](O)(C(=O)OC)[C@H](OC(C)=O)[C@]5(CC)C=CCN6CC[C@]43[C@@H]65)C2)C1 [vinblastine]
effect on RNP granules (in words) [1]: form PBs

COc1ccc([C@@]23Oc4cc(OC)cc(OC)c4[C@]2(O)[C@H](O)[C@H](C(=O)N(C)C)[C@H]3c2ccccc2)cc1 [rocaglamide A]
inhibition of eIF4A (in words) (eIF4A): inhibit eIF4A

Reference: US20260294874A1, “COMPOSITIONS COMPRISING MODULATORS OF RIBONUCLEOPROTEIN GRANULE FORMATION AND DISSOLUTION AND METHODS OF USE THEREOF” (University of Virginia Patent Foundation, priority 2023, published 2026)
